In patent publication US20230107941A1, “HEPATITIS B CAPSID ASSEMBLY MODULATORS” (Venatorx Pharmaceuticals, Inc., priority 2019, published 2023):

Legend:
HBV = assay: In vitro antiviral assay: anti-HBV replication in HepAD38 cells (extracellular HBV DNA by QPCR); assay type: cell-based, hepatitis B virus (genotype D, serotype ayw); details: Hepatitis B virus, HePAD38, 168 h, 7 days incubation, extracellular HBV DNA by QPCR, read-out: Anti-HBV EC50
Experimental: The anti-HBV activity of the Capsid Assembly Modulators (CAMs) was evaluated in a cell based assay utilizing the human hepatoma cell line HepAD38 (Ladner, S K., et al., 1998). HepAD38 cells were derived from the parental line, HepG2, that were stably transfected with a construct containing an HBV genome (genotype D, serotype ayw) under the control of a tetracycline repressible CMV promoter. Upon removal of tetracycline, viral pre-genomic RNA (pgRNA) and mRNAs are expressed and infectious viral particles are assembled and secreted into the culture medium providing a reliable, robust system to measure multiple steps of the HBV life cycle. Disruption of capsid formation results in reduced levels of DNA-containing virus particles that are released into the culture supernatant. To quantify the effect of CAMs on HBV replication, we developed a sensitive QPCR-based assay that measures extracellular HBV DNA levels upon treatment of HepAD38 cells with various concentrations of test compounds.
HepAD38 cells were maintained in DMEM/F12 medium containing 10% FBS, 400 μg/mL G418 and 0.3 μg/mL tetracycline (tet+ media) to maintain repression of HBV replication. To evaluate each compound, HepAD38 cells were seeded into 24-well collagen coated culture plates (Corning BioCoat) at a density of 200,000 cells per well in 1 mL of medium without tetracycline (tet-media) and allowed to adhere overnight at 37° C., 5% CO2 in a humidified incubator. The following day, media was refreshed and a dose range of each compound was prepared by performing 1 log10 serial dilutions in 100% DMSO at 200× the desired assay concentration. Dilutions were then added to the cells resulting in a final dose range of 1 μM to 10 pM and the plates were returned to the incubator. Following 7 days of incubation, culture supernatants were harvested and HBV DNA levels were evaluated by QPCR and compared to the vehicle treated control wells (i.e. DMSO alone).
To quantify HBV DNA levels, cell culture supernatants were diluted 1:10 in sterile, nuclease-free water (Gibco). The diluted supernatants were subsequently added to a PCR master mix containing 1× Roche Light Cycler Master Mix, 0.5 μM forward primer, 0.5 μM reverse primer (Fwd: 5′-[…] (SEQ ID NO 1); Rev: 5′-[…] (SEQ ID NO 2)), 0.2 μM Roche Universal Probe Library Probe 25. The volume was brought to 20 μL with nuclease-free water and amplification of the HBV target sequence was performed using a Roche LightCycler 480 QPCR instrument. PCR extended out to 45 cycles with each cycle consisting of a denaturation step at 95° C. for 10 sec., followed by an annealing step at 60° C. for 10 sec. and a brief extension step at 72° C. for 1 sec.
Extracellular HBV DNA levels, expressed in copies/mL, were determined by comparison to a standard curve (10^2-10^9 copies/mL) using the Roche LightCycler analysis software. These values were subsequently converted to percent inhibition of HBV replication by dividing the HBV DNA levels in the experimental samples with those obtained from the vehicle control (˜1-2×10^5 copies/mL). Potency, expressed as an EC50 (the effective concentration required to inhibit 50% of HBV replication), was calculated from the dose-response curve using a 4-parameter non-linear regression analysis (GraphPad Prism). The nucleoside analog inhibitor entecavir was used as a positive control to validate each assay run. The EC50 value of entecavir in the HepAD38 assay was 0.5 nM, as previously reported in the literature.

[1] = In vitro cytotoxicity assay (MTT cell viability) in HepG2 cells; assay type: cell-based, human; details: human
Experimental: To evaluate antiviral selectivity, the cytotoxic activity of each compound was determined using a standard cell viability assay performed on the parental HepG2 cell line. Cell viability was determined by measuring the conversion of 3-(4,5-dimethylthiazol-2-yl)-2,5-diphenyltetrazolium bromide (MTT) to the insoluble formazan salt crystal that occurs in live cells. Briefly, HepG2 cells were seeded in 96-well plates at a density of 20,000 cells per well in […] (complete growth medium) and allowed to adhere overnight in a 37° C., […] humidified incubator. The next day, test agents were prepared by performing 8 half-log10 serial dilutions in 100% DMSO at 200× the final desired concentration in the assay. Compounds were tested over a range of concentrations from 30 μM to 1.0 nM in the assay. HepG2 cells were incubated in the presence of various concentrations of CAMs for 7 days in a 37° C., […] humidified incubator. At the completion of the 7-day incubation period, MTT reagent was added to each well and the mixture was incubated for an additional 3-4 hours. At the completion of the incubation period, all wells were aspirated to remove the culture medium. The formazan crystals were solubilized from the cell monolayers with 100% DMSO. Plates were briefly mixed on an orbital shaker and absorbance was measured at 492 nm using a Perkin-Elmer EnVision multi-label plate reader. All absorbance values were converted to a percentage of the signal obtained from the vehicle treated controls. Absorbance values at 492 nm are directly proportional to the number of viable cells present in the sample. A CC50 value (cytotoxic concentration that results in loss of 50% cell viability) was calculated from the dose-response curve by 4-parameter, non-linear regression analysis using the GraphPad Prism software. The positive control compound, staurosporine, reduced the viability of HepG2 cells in a dose-dependent manner (CC50=100 nM).

Cc1c(C(=O)Nc2cc(Cl)cc(Cl)c2)c(C)n(C)c1C(=O)C(=O)N[C@H](C)C(F)(F)F [Example 79, (R)-N-(3,5-dichlorophenyl)-1,2,4-trimethyl-5-(2-oxo-2-((1,1,1-trifluoropropan-2-yl)amino)acetyl)-1H-pyrrole-3-carboxamide]
EC50 (HBV): < 50 nM
CC50 at 7 days [1]: 5000 to 30000 nM

Cc1cc(NC(=O)c2c(C)c(C(=O)C(=O)N[C@H]3[C@H]4CC[C@H](C4)[C@H]3CO)n(C)c2C)ccc1F [Example 21, N-(4-fluoro-3-methylphenyl)-5-(2-(((1S,2S,3R,4R)-3-(hydroxymethyl)bicyclo[2.2.1]heptan-2-yl)amino)-2-oxoacetyl)-1,2,4-trimethyl-1H-pyrrole-3-carboxamide]
EC50 (HBV): < 50 nM
CC50 at 7 days [1]: > 30000 nM

Cc1cc(NC(=O)c2c(C3CC3)c(C(=O)C(=O)N[C@]3(C)CC[C@@H](O)CC3)n(C)c2C)ccc1F [Example 102, 4-cyclopropyl-N-(4-fluoro-3-methylphenyl)-5-(2-(((1r,4r)-4-hydroxy-1-methylcyclohexyl)amino)-2-oxoacetyl)-1,2-dimethyl-1H-pyrrole-3-carboxamide]
EC50 (HBV): < 50 nM
CC50 at 7 days [1]: > 30000 nM

Cc1c(C(=O)Nc2ccc(F)c(Br)c2)c(C)n(C)c1C(=O)C(=O)N[C@]1(C)CC[C@@H](O)CC1 [Example 18, N-(3-bromo-4-fluorophenyl)-5-(2-(((1r,4r)-4-hydroxy-1-methylcyclohexyl)amino)-2-oxoacetyl)-1,2,4-trimethyl-1H-pyrrole-3-carboxamide]
EC50 (HBV): < 50 nM
CC50 at 7 days [1]: > 30000 nM

Cc1cc(NC(=O)c2c(C)c(C(=O)C(=O)NC34CC(C3)C4)n(C)c2C)ccc1F [Example 80, 5-(2-(bicyclo[1.1.1]pentan-1-ylamino)-2-oxoacetyl)-N-(4-fluoro-3-methylphenyl)-1,2,4-trimethyl-1H-pyrrole-3-carboxamide]
EC50 (HBV): < 50 nM
CC50 at 7 days [1]: 5000 to 30000 nM

Cc1c(C(=O)Nc2ccc(F)c(C3CC3)c2)c(C)n(C)c1C(=O)C(=O)NC(C)(C)C [Example 138, 5-(2-(tert-butylamino)-2-oxoacetyl)-N-(3-cyclopropyl-4-fluorophenyl)-1,2,4-trimethyl-1H-pyrrole-3-carboxamide]
EC50 (HBV): < 50 nM
CC50 at 7 days [1]: > 30000 nM

Cc1cc(NC(=O)c2c(C)c(C(=O)C(=O)N[C@H]3CC[C@@H](S(C)(=O)=O)CC3)n(C)c2C2CCCCC2)ccc1F [Example 117, 2-cyclohexyl-N-(4-fluoro-3-methylphenyl)-1,4-dimethyl-5-(2-(((1s,4s)-4-(methylsulfonyl)cyclohexyl)amino)-2-oxoacetyl)-1H-pyrrole-3-carboxamide]
EC50 (HBV): > 1000 nM
CC50 at 7 days [1]: > 30000 nM

Cc1cc(NC(=O)c2c(C)c(C(=O)C(=O)N[C@H]3CC[C@@H](O)CC3)n(C)c2C2CCCC2)ccc1F [Example 134, 2-cyclopentyl-N-(4-fluoro-3-methylphenyl)-5-(2-(((1s,4s)-4-hydroxycyclohexyl)amino)-2-oxoacetyl)-1,4-dimethyl-1H-pyrrole-3-carboxamide]
EC50 (HBV): 50 to 499 nM
CC50 at 7 days [1]: > 30000 nM

Cc1cc(NC(=O)c2c(C)c(C(=O)C(=O)N[C@]3(C)CC[C@H](O)CC3)n(C)c2C2CCCCC2)ccc1F [Example 118, 2-cyclohexyl-N-(4-fluoro-3-methylphenyl)-5-(2-(((1s,4s)-4-hydroxy-1-methylcyclohexyl)amino)-2-oxoacetyl)-1,4-dimethyl-1H-pyrrole-3-carboxamide]
EC50 (HBV): 500 to 1000 nM
CC50 at 7 days [1]: > 30000 nM

Cc1cc(NC(=O)c2c(C)c(C(=O)C(=O)NCC(C)(C)O)n(C)c2-c2nccs2)ccc1F [Example 178, N-(4-fluoro-3-methylphenyl)-5-(2-((2-hydroxy-2-methylpropyl)amino)-2-oxoacetyl)-1,4-dimethyl-2-(thiazol-2-yl)-1H-pyrrole-3-carboxamide]
EC50 (HBV): > 1000 nM
CC50 at 7 days [1]: > 30000 nM

CC(=O)N1CC[C@@H](NC(=O)C(=O)c2c(C)c(C(=O)Nc3ccc(F)c(C)c3)c(C)n2C)C(C)(C)C1 [Example 149, (R)-5-(2-((1-acetyl-3,3-dimethylpiperidin-4-yl)amino)-2-oxoacetyl)-N-(4-fluoro-3-methylphenyl)-1,2,4-trimethyl-1H-pyrrole-3-carboxamide]
EC50 (HBV): < 50 nM
CC50 at 7 days [1]: > 30000 nM

Cc1cc(NC(=O)c2c(C)c(C(=O)C(=O)N[C@H]3CC[C@@H](O)CC3)n(C)c2-c2cccnc2)ccc1F [Example 153, N-(4-fluoro-3-methylphenyl)-5-(2-(((1s,4s)-4-hydroxycyclohexyl)amino)-2-oxoacetyl)-1,4-dimethyl-2-(pyridin-3-yl)-1H-pyrrole-3-carboxamide]
EC50 (HBV): > 1000 nM
CC50 at 7 days [1]: > 30000 nM

CCc1c(C(=O)Nc2ccc(F)c(C)c2)c(C)c(C(=O)C(=O)N[C@H]2CC[C@@H](O)CC2)n1C [Example 108, 2-ethyl-N-(4-fluoro-3-methylphenyl)-5-(2-(((1s,4s)-4-hydroxycyclohexyl)amino)-2-oxoacetyl)-1,4-dimethyl-1H-pyrrole-3-carboxamide]
EC50 (HBV): < 50 nM
CC50 at 7 days [1]: 5000 to 30000 nM

Cc1cc(F)cc(NC(=O)c2c(C)c(C(=O)C(=O)NC(C)(C)C)n(C)c2C)c1 [Example 67, 5-(2-(tert-butylamino)-2-oxoacetyl)-N-(3-fluoro-5-methylphenyl)-1,2,4-trimethyl-1H-pyrrole-3-carboxamide]
EC50 (HBV): < 50 nM
CC50 at 7 days [1]: > 30000 nM

Cc1cc(NC(=O)c2c(C)c(C(=O)C(=O)N[C@@H]3C[C@@H](C(=O)O)N(C)C3)n(C)c2C)ccc1F [Example 171, (2S,4R)-4-(2-(4-((4-fluoro-3-methylphenyl)carbamoyl)-1,3,5-trimethyl-1H-pyrrol-2-yl)-2-oxoacetamido)-1-methylpyrrolidine-2-carboxylic acid]
EC50 (HBV): > 1000 nM
CC50 at 7 days [1]: > 30000 nM

Cc1c(C(=O)Nc2ccc(F)c(F)c2)c2n(c1C(=O)C(=O)N[C@@H]1COC[C@H]1N1CCOCC1)CCCC2 [Example 37, N-(3,4-difluorophenyl)-2-methyl-3-(2-(((3S,4S)-4-morpholinotetrahydrofuran-3-yl)amino)-2-oxoacetyl)-5,6,7,8-tetrahydroindolizine-1-carboxamide]
EC50 (HBV): 50 to 499 nM
CC50 at 7 days [1]: > 30000 nM

Cc1c(C(=O)N2CCC(C)(O)CC2)c(C)n(C)c1C(=O)C(=O)NC(C)(C)C [Example 61, N-(tert-butyl)-2-(4-(4-hydroxy-4-methylpiperidine-1-carbonyl)-1,3,5-trimethyl-1H-pyrrol-2-yl)-2-oxoacetamide]
EC50 (HBV): 500 to 1000 nM
CC50 at 7 days [1]: > 30000 nM
